Test results taken from patent US20100249048A1, “BETA GLYCOLIPIDS FOR THE TREATMENT OF CALCIFICATION RELATED DEGENERATIVE DISORDERS” (priority 2007, published 2010).

B1: PTH: peptide hormone, the most important regulator of calcium and phosphate metabolism (peptide, UniProt P01270 32-115, looked up)
Parathyroid hormone: SVSEIQLMHNLGKHLNSMERVEWLRKKLQDVHNFVALGAPLAPRDAGSQRPRKKEDNVLVESHEKSLGEADKADVNVLTKAKSQ
modifications: Parathyroid hormone

Key:
[1] = system: high Adenine, high phosphate rat model; assay: MSCT assessment of valve calcification (Agatston score), foscarnet study; type: in vivo; details: 5 mg/kg foscarnet i.p. (group B) vs diet group A, ninth week, P=0.05
Protocol: MSCT scanning without contrast was performed on all rats (Brilliance, Philips Medical Systems, Groningen, Netherlands) on the ninth week. Study parameters were: 120 KVp, 300 mAs, slice thickness 0.67 mm, increment 0.3 mm. The scan was analyzed by an operator blinded to the study groups, on an off-line CT workstation. The Agatston Score was calculated by multiplying the area of a calcified lesion with a weighted CT attenuation score dependent on the maximal CT attenuation (HU) within a lesion as previously described [Agatston, A. S., et al. Journal of the American College of Cardiology 15:827-832 (1990)]. In order to asses the effect of foscarnet on treating AVC in vivo, the high Adenine, high phosphate rat model was used. Three different groups (10 rats each) were fed daily with the Adenine diet (diet group) for 6 weeks (Group A). Group B (n=9) followed the same protocol and was also treated with 5 mg/kg foscarnet administered intraperitoneally (i.p.). The control group C, received daily chew. Renal function tests, electrolytes were followed for nine weeks. Multislice computed tomography (MSCT) was performed at the ninth week. Calcium scores were calculated using the Agatston score.

valve myofibroblasts = assay: Von Kossa staining of cultured valve myofibroblasts (calcification / mineralization); type: cell-based, rat; details: for osteogenic differentiation and calcification of valve myofibroblasts (Von kossa staining): 1, 10 or 100 μg/ml, fourteen days
Protocol: The present inventors have now further explored the calcification process in an attempt to specifically identify targets for interfering and prevention thereof. Therefore, the inventors next examined myofibroblasts obtained from the aortic valve of wild type rats, cultured in 24 well plates.
Myofibroblasts were incubated with PTH ([…]), or phosphate, 1, 10 or 100 μg/ml) for fourteen days. As shown by the Von kossa (calcium) staining presented by FIG. 7, the phosphate treatment, but not the PTH, induces osteogenic differentiation and calcification of valve myofibroblasts.
To test the possibility that inhibition of PIT1 would decrease mineralization, valve myofibroblasts were incubated with 10 μg/ml phosphate, or with phosphate and 0.5 mM foscarnet, the specific PIT1 inhibitor for 7 days.

IL-6 = IL-6 levels in supernatants of myofibroblasts; type: cell-based, rat; details: myofibroblasts treated with foscarnet
Text: (§1) In order to investigate whether the beneficial effect of foscarnet on the calcification process also affects immunomodulatory parameters, the inventors the effect of foscarnet on the levels of cytokines that are known as having a role in osteoblast transformation and maturation. Therefore, levels of TNF-α and IL-6 were next measured in supernatants of myofibroblasts treated with foscarnet. […] IL-6 levels.

TNF-α = TNF-α levels in supernatants of myofibroblasts; type: cell-based, rat; details: myofibroblasts treated with foscarnet; 69 pg/ml without
Text: as §1

Molecule | AVC, Agatston score (MSCT) [1] | AVC, Agatston score (MSCT) ([1]; listed as Forscarnet) | cell mineralization (Von kossa staining) (valve myofibroblasts; 10 μg/ml phosphate plus 0.5 mM foscarnet, 7 days) | IL-6 levels in supernatants (IL-6) | TNF-α levels in supernatants (TNF-α) [pg/mL] | osteogenic differentiation and calcification of valve myofibroblasts (Von kossa staining) (valve myofibroblasts)
O=C(O)P(=O)(O)O [foscarnet] | 21 | significant decrease | completely inhibited | no effect | 5 | –
phosphate | – | – | – | – | – | induces
B1 | – | – | – | – | – | not
